Measurements taken from ChEMBL document CHEMBL1201862, “PubChem BioAssay data set” (2004).
Counter-ions that a name gives are not always drawn.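 Following 48 hours of exposure in 96-well plates, responses at five concentrations were used to interpolate endpoints linearly. Here, GI50 denotes the concentration required for 50% inhibition of growth.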 The source made the active and inactive calls. Cut-off read from the data, not from the text of the source: active = GI50 up to about 1.1 µM and inactive = higher.

Experiments:
Test in all cases: DTP human tumour cell line panel, 48 h
T47D = test system: T47D
SF-295 = test system: SF-295
CAKI-1 = test system: CAKI-1
SW-620 = test system: SW-620
PC-3 = test system: PC-3
DU-145 = test system: DU-145
MCF7 = test system: MCF7
NCI/ADR-RES = test system: NCI/ADR-RES
SK-MEL-5 = test system: SK-MEL-5
HCT-15 = test system: HCT-15
786-0 = test system: 786-0
MDA-MB-435 = test system: MDA-MB-435
OVCAR-3 = test system: OVCAR-3
UO-31 = test system: UO-31
OVCAR-5 = test system: OVCAR-5
ACHN = test system: ACHN
HT-29 = test system: HT-29
SNB-75 = test system: SNB-75
A498 = test system: A498
DMS-273 = test system: DMS-273

Row | SMILES | GI50 (T47D) | GI50 (SF-295) | GI50 (CAKI-1) | GI50 (SW-620) | GI50 (PC-3) | GI50 (DU-145) | GI50 (MCF7) | GI50 (NCI/ADR-RES) | GI50 (SK-MEL-5) | GI50 (HCT-15) [µM] | GI50 (786-0) | GI50 (MDA-MB-435) | GI50 (OVCAR-3) | GI50 (UO-31) | GI50 (OVCAR-5) | GI50 (ACHN) | GI50 (HT-29) | GI50 (SNB-75) | GI50 (A498) | GI50 (DMS-273)
1 | NC(CC(=O)Nc1cc(C(F)(F)F)ccc1Cl)=NO | > 100 µM (inactive) | > 100 µM (inactive) | > 100 µM (inactive) | > 100 µM (inactive) | > 100 µM (inactive) | > 100 µM (inactive) | > 100 µM (inactive) | > 100 µM (inactive) | > 100 µM (inactive) | > 100 | > 100 µM (inactive) | > 100 µM (inactive) | > 100 µM (inactive) | > 100 µM (inactive) | > 100 µM (inactive) | > 100 µM (inactive) | > 100 µM (inactive) | > 100 µM (inactive) | > 100 µM (inactive) | –
2 | COC(=O)c1ccc(Cc2ccc(C(=O)OC)o2)o1 | – | > 378 µM (inactive) | > 378 µM (inactive) | > 378 µM (inactive) | – | – | – | – | > 378 µM (inactive) | > 378 | > 378 µM (inactive) | – | > 378 µM (inactive) | – | > 378 µM (inactive) | > 378 µM (inactive) | > 378 µM (inactive) | – | – | > 378 µM (inactive)
3 | Clc1ccc(CN2COc3c(cc(Cl)c4cccnc34)C2)cc1 | – | 2.52 µM (inactive) | 2.62 µM (inactive) | 2.94 µM (inactive) | – | – | – | – | 2.26 µM (inactive) | 0.456 | 2.74 µM (inactive) | – | 1.99 µM (inactive) | 0.649 µM (active) | 2.24 µM (inactive) | 1.74 µM (inactive) | 11.9 µM (inactive) | 3.4 µM (inactive) | 12.1 µM (inactive) | 1.78 µM (inactive)
4 | c1ccc(-c2[nH]c(-c3ccccc3)c(-c3cnccn3)c2-c2cnccn2)cc1 | – | > 100 µM (inactive) | > 100 µM (inactive) | > 100 µM (inactive) | – | – | – | – | > 100 µM (inactive) | > 100 | > 100 µM (inactive) | – | > 100 µM (inactive) | > 100 µM (inactive) | > 100 µM (inactive) | > 100 µM (inactive) | 91.2 µM (inactive) | 31.9 µM (inactive) | > 100 µM (inactive) | > 100 µM (inactive)
5 | O=C1C=CC(=O)N1c1ccc2c(c1)Cc1cc(NC(=O)C(F)(F)F)ccc1-2 | 17.9 µM (inactive) | > 100 µM (inactive) | 16 µM (inactive) | 9.84 µM (inactive) | 17.1 µM (inactive) | 16 µM (inactive) | 15.1 µM (inactive) | 27.7 µM (inactive) | 47 µM (inactive) | 10.6 | 5.58 µM (inactive) | 17.4 µM (inactive) | 15.7 µM (inactive) | 13.6 µM (inactive) | 16.7 µM (inactive) | 4.43 µM (inactive) | 10.2 µM (inactive) | 16.1 µM (inactive) | 20 µM (inactive) | –
6 | CO/C=C/c1cc2c(cc1C(OC)OC)OCO2 | – | – | 29.5 µM (inactive) | 50 µM (inactive) | – | – | – | – | 17.4 µM (inactive) | – | 42.6 µM (inactive) | – | 29.9 µM (inactive) | 26.5 µM (inactive) | 52.8 µM (inactive) | 83.4 µM (inactive) | 39.4 µM (inactive) | 16.4 µM (inactive) | – | 30.3 µM (inactive)
7 | COC(=O)C1=C(c2cc(OC)c(OC)c(OC)c2)OC(c2cc(OC)c(OC)c(OC)c2)C1COC(C)=O (centres undefined) | – | 45.2 µM (inactive) | > 100 µM (inactive) | 87.5 µM (inactive) | – | – | – | – | 29.4 µM (inactive) | 26.9 | 26.1 µM (inactive) | – | 33.7 µM (inactive) | 27.2 µM (inactive) | 18.1 µM (inactive) | 30.1 µM (inactive) | 35.5 µM (inactive) | 74.6 µM (inactive) | 51.5 µM (inactive) | 25.6 µM (inactive)
8 | N#CC(NNC(=O)Cc1ccccc1)c1cccc(O)c1 (centres undefined) | – | > 100 µM (inactive) | > 100 µM (inactive) | > 100 µM (inactive) | – | – | – | – | > 100 µM (inactive) | > 100 | > 100 µM (inactive) | – | – | > 100 µM (inactive) | > 100 µM (inactive) | > 100 µM (inactive) | > 100 µM (inactive) | > 100 µM (inactive) | – | > 100 µM (inactive)
9 | CCc1cccc(CC)c1NC(=O)/C(Cl)=C(/Cl)C(=O)O | – | > 100 µM (inactive) | 16.8 µM (inactive) | 21.2 µM (inactive) | – | – | – | – | 36.7 µM (inactive) | 19.4 | > 42.1 µM (inactive) | – | 32.8 µM (inactive) | 32.4 µM (inactive) | > 100 µM (inactive) | 26.9 µM (inactive) | 35 µM (inactive) | 43.9 µM (inactive) | > 100 µM (inactive) | 50 µM (inactive)
10 | Cc1ccc(Nc2ccc(Nc3ccc(C)cc3)c3c2C(=O)c2c(O)ccc(O)c2C3=O)cc1 | – | > 100 µM (inactive) | > 100 µM (inactive) | > 100 µM (inactive) | – | – | – | – | > 100 µM (inactive) | > 100 | > 100 µM (inactive) | – | 70.5 µM (inactive) | > 100 µM (inactive) | > 100 µM (inactive) | > 100 µM (inactive) | – | 68.4 µM (inactive) | > 100 µM (inactive) | > 100 µM (inactive)
11 | CC(C)(Oc1ccc2c(=O)cc(-c3ccccc3)oc2c1)C(=O)Nc1c(Cl)cccc1Cl | – | > 100 µM (inactive) | > 100 µM (inactive) | > 100 µM (inactive) | – | – | – | – | 26.5 µM (inactive) | 76.7 | 97.1 µM (inactive) | – | > 100 µM (inactive) | 9.66 µM (inactive) | > 100 µM (inactive) | – | > 100 µM (inactive) | – | > 100 µM (inactive) | 64.4 µM (inactive)
12 | O=C(c1cc2c(c3ccccc13)NC1(CCCCC1)N=C2C(F)(F)F)C(F)(F)F | 2.93 µM (inactive) | 3.2 µM (inactive) | 3.35 µM (inactive) | 4.7 µM (inactive) | 3.68 µM (inactive) | 5.35 µM (inactive) | 3.63 µM (inactive) | 4.53 µM (inactive) | 5.74 µM (inactive) | 5.07 | 3.82 µM (inactive) | 3.23 µM (inactive) | 2.85 µM (inactive) | 3.62 µM (inactive) | 8.83 µM (inactive) | 3.63 µM (inactive) | 3.66 µM (inactive) | 4.7 µM (inactive) | 7.83 µM (inactive) | –
13 | COc1ccccc1Cn1nc(OC)c2cc([N+](=O)[O-])ccc21 | > 100 µM (inactive) | 6.3 µM (inactive) | 15 µM (inactive) | > 100 µM (inactive) | > 100 µM (inactive) | > 100 µM (inactive) | 45.8 µM (inactive) | 59.3 µM (inactive) | > 53.7 µM (inactive) | > 70.1 | 11.6 µM (inactive) | > 71 µM (inactive) | > 100 µM (inactive) | > 35.1 µM (inactive) | > 100 µM (inactive) | 31 µM (inactive) | > 100 µM (inactive) | 4.16 µM (inactive) | 26.9 µM (inactive) | –
14 | O=C(O)CN(c1ccc(Cl)cc1)S(=O)(=O)c1ccccc1 | – | > 100 µM (inactive) | > 100 µM (inactive) | > 100 µM (inactive) | – | – | – | – | > 100 µM (inactive) | > 100 | > 100 µM (inactive) | – | > 100 µM (inactive) | > 100 µM (inactive) | > 100 µM (inactive) | > 100 µM (inactive) | > 100 µM (inactive) | > 100 µM (inactive) | > 100 µM (inactive) | > 100 µM (inactive)
15 | COc1c(OC)c(OC)c2c(=O)cc(-c3ccc(OC(C)C)cc3)oc2c1OC | 7.03 µM (inactive) | 29.4 µM (inactive) | 20.5 µM (inactive) | > 44 µM (inactive) | 18.8 µM (inactive) | 26.1 µM (inactive) | 18.3 µM (inactive) | 17.5 µM (inactive) | 8.97 µM (inactive) | 19.4 | > 34.1 µM (inactive) | 26 µM (inactive) | 17.9 µM (inactive) | 18.2 µM (inactive) | 18.8 µM (inactive) | 34.2 µM (inactive) | 8.32 µM (inactive) | > 35.2 µM (inactive) | 8.3 µM (inactive) | –
16 | CN1CC(=O)N(C)c2ncn(Cc3ccccc3)c2C1=O | – | > 100 µM (inactive) | – | > 100 µM (inactive) | – | – | – | – | > 100 µM (inactive) | > 100 | > 100 µM (inactive) | – | > 100 µM (inactive) | > 100 µM (inactive) | – | > 100 µM (inactive) | > 100 µM (inactive) | > 100 µM (inactive) | > 100 µM (inactive) | > 100 µM (inactive)
17 | CN(C)CCC=C1c2ccccc2C=Cc2ccccc21 [CYCLOBENZAPRINE HYDROCHLORIDE] | 19.5 µM (inactive) | 17.2 µM (inactive) | 17 µM (inactive) | 17.1 µM (inactive) | 16.6 µM (inactive) | 18 µM (inactive) | 16.3 µM (inactive) | 16.3 µM (inactive) | 14 µM (inactive) | 17.7 | 16.1 µM (inactive) | 16.7 µM (inactive) | 15.5 µM (inactive) | 15.8 µM (inactive) | 15 µM (inactive) | 17.2 µM (inactive) | 5.25 µM (inactive) | 14.7 µM (inactive) | 15.8 µM (inactive) | –
18 | O=C1Nc2ccccc2/C1=C1\C(=O)Nc2ccccc21 [ISOINDIGO] | 1.35 µM (inactive) | 60.3 µM (inactive) | 19.7 µM (inactive) | 4.57 µM (inactive) | 9.75 µM (inactive) | 12.9 µM (inactive) | 4.52 µM (inactive) | 17.3 µM (inactive) | 59.7 µM (inactive) | 3.84 | 9.42 µM (inactive) | 11.9 µM (inactive) | 19.3 µM (inactive) | 13.6 µM (inactive) | 3.48 µM (inactive) | 12.6 µM (inactive) | 4.98 µM (inactive) | 14.1 µM (inactive) | 20.9 µM (inactive) | –
